We go through one compound from ChEMBL document CHEMBL4190316, “Synthesis and biological evaluation of 4-biphenylamino-5-halo-2(5H)-furanones as potential anticancer agents” (Eur J Med Chem, 2017).

The subject of assay [1] is MCF7. Nature of the assay: Cell cycle arrest in human MCF7 cells assessed as accumulation at G2/M phase at 40 uM after 24 hrs by propidium iodide staining based flow cytometry (reference value: 6.91%). The class given is functional. (In flow cytometry, cells or beads pass a laser one at a time.)
The subject of assay [2] is MCF7. Nature of the assay: Induction of apoptosis in human MCF7 cells assessed as live cells at 40 uM after 72 hrs by Annexin-V/PI staining based flow cytometry (reference value: 97.7%). The class given is functional.
Assay [3] has as its system MCF7. Nature of the assay: Cell cycle arrest in human MCF7 cells assessed as accumulation at G1 phase at 20 uM after 72 hrs by propidium iodide staining based flow cytometry (reference value: 66.42%). The class given is functional.
For the next assay, the system named is C6. Nature of the assay: Cytotoxicity against rat C6 cells assessed as reduction in cell viability after 72 hrs by MTT assay. The class given is functional, cell-based. Conditions: C6, 72 h. A general note: Formazan colour is commonly taken as a measure of viable cells.
Assay [4] deals with MCF7. Nature of the assay: Cell cycle arrest in human MCF7 cells assessed as accumulation at G1 phase at 10 uM after 24 hrs by propidium iodide staining based flow cytometry (reference value: 69.92%). The class given is functional.
In assay [5] the test system is MCF7. Nature of the assay: Cell cycle arrest in human MCF7 cells assessed as accumulation at S phase at 40 uM after 24 hrs by propidium iodide staining based flow cytometry (reference value: 23.16%). The class given is functional.
Assay [6] deals with MCF7. Briefly: Cell cycle arrest in human MCF7 cells assessed as accumulation at G1 phase at 40 uM after 72 hrs by propidium iodide staining based flow cytometry (reference value: 66.42%). The class given is functional.
The test system of assay [7] is MCF7. Briefly: Induction of apoptosis in human MCF7 cells assessed as late apoptotic cells at 10 uM after 24 hrs by Annexin-V/PI staining based flow cytometry (reference value: 0.96%). The class given is functional.
Assay [8] relates to Quadruplex DNA. Briefly: Effect on conformation of c-Myc G-quadruplex DNA (unknown origin) at 1 mM measured every 3 mins by CD spectroscopic analysis. The class given is nucleic-acid assay.
The subject of assay [9] is MCF7. Nature of the assay: Induction of apoptosis in human MCF7 cells assessed as early apoptotic cells at 20 uM after 24 hrs by Annexin-V/PI staining based flow cytometry (reference value: 0.13%). The class given is functional.
Assay [10] relates to Quadruplex DNA. Briefly: Binding affinity to c-Myc G-quadruplex DNA (unknown origin) assessed as hypochromism at 20 uM incubated for 3 mins by electronic absorption spectra method. The class given is nucleic-acid assay.
The test system of assay [11] is MCF7. Briefly: Induction of apoptosis in human MCF7 cells assessed as early apoptotic cells at 40 uM after 72 hrs by Annexin-V/PI staining based flow cytometry (reference value: 0.28%). The class given is functional.
The test system of assay [12] is MCF7. Nature of the assay: Induction of apoptosis in human MCF7 cells assessed as necrotic cells at 20 uM after 24 hrs by Annexin-V/PI staining based flow cytometry (reference value: 4.03%). The class given is functional.
The test system of assay [13] is MCF7. Nature of the assay: Induction of apoptosis in human MCF7 cells assessed as necrotic cells at 10 uM after 72 hrs by Annexin-V/PI staining based flow cytometry (reference value: 1.36%). The class given is functional.
Assay [14] deals with MCF7. Nature of the assay: Cell cycle arrest in human MCF7 cells assessed as accumulation at G2/M phase at 40 uM after 72 hrs by propidium iodide staining based flow cytometry (reference value: 17.99%). The class given is functional.
For assay [15], the system named is MCF7. Nature of the assay: Cell cycle arrest in human MCF7 cells assessed as accumulation at S phase at 10 uM after 24 hrs by propidium iodide staining based flow cytometry (reference value: 23.16%). The class given is functional.
Assay [16] concerns MCF7. Briefly: Induction of apoptosis in human MCF7 cells assessed as early apoptotic cells at 40 uM after 24 hrs by Annexin-V/PI staining based flow cytometry (reference value: 0.13%). The class given is functional.
The subject of assay [17] is MCF7. Nature of the assay: Induction of apoptosis in human MCF7 cells assessed as live cells at 10 uM after 72 hrs by Annexin-V/PI staining based flow cytometry (reference value: 97.7%). The class given is functional.
Assay [18] concerns Quadruplex DNA. Nature of the assay: Binding affinity to c-Myc G-quadruplex DNA (unknown origin) at 20 uM incubated for 2 mins by fluorescence emission spectra method. The class given is nucleic-acid assay.

Calls of active or inactive are those of the source. No cut-off for these calls is given here.

`CC(=O)OC1OC(=O)C(Br)=C1Nc1ccc(-c2ccc(N)cc2)cc1` (centres undefined): the Activity in the assay on MCF7 [1] is 17.92%; with MCF7 [2], 93.39%; with MCF7 [3], 61.38%; in the assay with MCF7 [4] it was 66.44%; in the assay with MCF7 [5] it was 26.45%; with MCF7 [6], 44.37%. For the same compound, the Activity in the assay with MCF7 [7] stood at 0.13%; in the assay with MCF7 [9], 0.13%; with Quadruplex DNA [10], 28%; in the assay on MCF7 [11], 0.47%; in the assay with MCF7 [12], 4.59%; with MCF7 [13], 3.2%. Moreover, the Activity is given as 35.13% with MCF7 [14], 23.95% in the assay with MCF7 [15], 4.08% in the assay on MCF7 [16] and 95.8% in the assay on MCF7 [17]. Besides, the half-inhibitory concentration (IC50) in the assay with C6 is 15.4 µM. Also, the outcome in the assay on Quadruplex DNA [8] was inactive. The outcome with Quadruplex DNA [18] was Active.

Broadly, the IC50 is the concentration that inhibits the measured activity by half.
